The text below walks through data of paper PMC10945556, “Design, Synthesis, and Antifungal Activity of 3-Substituted-2(5H)-Oxaboroles” (ACS Medicinal Chemistry Letters, 2024).

One assay deals with E. coli. In words: MIC, microbroth dilution. Type of assay: cell-based, Escherichia coli. The settings on record: Escherichia coli. Background: Dilution methods test growth across graded concentrations, often in twofold steps.
Assay [1] relates to Methicillin resistant Staphylococcus aureus. Description: MIC, microbroth dilution. Type of assay: cell-based. The settings on record: Staphylococcus aureus, S. aureus (MRSA).
The subject of a further assay is P. chrysogenum. Description: MIC, dose-dependent solid media assay. Type of assay: cell-based, Penicillium chrysogenum. Particulars: Penicillium chrysogenum.
For another assay, the system named is C. albicans. In words: MIC, microbroth dilution. Type of assay: cell-based, Candida albicans. The settings on record: Candida albicans.
A further assay relates to S. cerevisiae. In words: MIC, microbroth dilution. The settings on record: Saccharomyces cerevisiae. Type of assay: cell-based, Saccharomyces cerevisiae.
Another assay concerns P. aeruginosa. In words: MIC, microbroth dilution. Type of assay: cell-based, Pseudomonas aeruginosa. The settings on record: Pseudomonas aeruginosa.
In the next assay the test system is T. mentagrophytes. Description: MIC, dose-dependent solid media assay. Type of assay: cell-based, Trichophyton mentagrophytes. The settings on record: Trichophyton mentagrophytes.
The next assay deals with B. cereus. Description: MIC, microbroth dilution. Type of assay: cell-based, Bacillus cereus. Particulars: Bacillus cereus.
In the next assay the test system is A. flavus. Description: MIC, dose-dependent solid media assay. Particulars: Aspergillus flavus. Type of assay: cell-based, Aspergillus flavus.

As usually defined, the MIC is the smallest concentration in the dilution series that meets the test's criterion for growth inhibition. With `COc1cccc(C2=CCOB2O)c1` [Compound 6o], the MIC in the assay with E. coli was > 50 µg/mL; in the assay on E. coli (value in parentheses), > 263 µM; in assay [1] it was > 50 µg/mL; in assay [1] (value in parentheses), > 263 µM; in the assay on P. chrysogenum, 50 µg/mL; in the assay on P. chrysogenum (value in parentheses), 263 µM. Moreover, the MIC with C. albicans is > 50 µg/mL; in the assay on C. albicans (value in parentheses), > 263 µM; against S. cerevisiae, 50 µg/mL; in the assay on S. cerevisiae (value in parentheses), 263 µM; in the assay on P. aeruginosa, > 50 µg/mL; in the assay with P. aeruginosa (value in parentheses), > 263 µM. The MIC is > 50 µg/mL in the assay with T. mentagrophytes; > 263 µM in the assay on T. mentagrophytes (value in parentheses); > 50 µg/mL against B. cereus; > 263 µM in the assay with B. cereus (value in parentheses); > 50 µg/mL against A. flavus; > 263 µM in the assay on A. flavus (value in parentheses).
On to `OB1OCC=C1c1ccc(OC(F)(F)F)cc1` [Compound 6m], for which the MIC against E. coli was > 50 µg/mL; with E. coli (value in parentheses) it was > 205 µM; in assay [1], > 50 µg/mL; in [1] (value in parentheses) it was > 205 µM; against P. chrysogenum it was 12.5 µg/mL; in the assay on P. chrysogenum (value in parentheses) it was 51.2 µM. In addition, the MIC is > 50 µg/mL against C. albicans; > 205 µM in the assay on C. albicans (value in parentheses); 29 ± 11 µg/mL against S. cerevisiae; 119 µM in the assay with S. cerevisiae (value in parentheses); > 50 µg/mL with P. aeruginosa; > 205 µM in the assay with P. aeruginosa (value in parentheses). Moreover, the MIC against T. mentagrophytes was 50 µg/mL; in the assay on T. mentagrophytes (value in parentheses), 205 µM; in the assay on B. cereus, > 50 µg/mL; in the assay on B. cereus (value in parentheses), > 205 µM; in the assay on A. flavus, 50 µg/mL; with A. flavus (value in parentheses), 205 µM.
Turning to `OB1OCC=C1c1ccccc1Cl` [Compound 6g], the MIC in the assay with E. coli was > 50 µg/mL; in the assay on E. coli (value in parentheses), > 258 µM; in assay [1], > 50 µg/mL; in [1] (value in parentheses) it was > 258 µM; against P. chrysogenum, > 50 µg/mL; with P. chrysogenum (value in parentheses) it was > 258 µM. For the same compound, the MIC against C. albicans is > 50 µg/mL; with C. albicans (value in parentheses), > 258 µM; in the assay with S. cerevisiae it was 50 µg/mL; in the assay on S. cerevisiae (value in parentheses) it was 258 µM; against P. aeruginosa, > 50 µg/mL; with P. aeruginosa (value in parentheses), > 258 µM. Moreover, the minimum inhibitory concentration (MIC) was > 50 µg/mL with T. mentagrophytes; > 258 µM with T. mentagrophytes (value in parentheses); > 50 µg/mL against B. cereus; > 258 µM with B. cereus (value in parentheses); > 50 µg/mL against A. flavus; > 258 µM with A. flavus (value in parentheses).
Consider `OB1OCC=C1c1cccc(Cl)c1` [Compound 6f], for which the MIC in the assay on E. coli was > 50 µg/mL; with E. coli (value in parentheses) it was > 258 µM; in assay [1] it was > 50 µg/mL; in [1] (value in parentheses), > 258 µM; in the assay on P. chrysogenum, 12.5 µg/mL; in the assay on P. chrysogenum (value in parentheses) it was 64.4 µM. Also, the MIC is > 50 µg/mL with C. albicans; > 258 µM in the assay with C. albicans (value in parentheses); 21 ± 4 µg/mL in the assay on S. cerevisiae; 108 µM with S. cerevisiae (value in parentheses); > 50 µg/mL against P. aeruginosa; > 258 µM in the assay with P. aeruginosa (value in parentheses). The MIC in the assay on T. mentagrophytes is 25 µg/mL; in the assay with T. mentagrophytes (value in parentheses) it was 129 µM; in the assay with B. cereus, > 50 µg/mL; with B. cereus (value in parentheses) it was > 258 µM; with A. flavus, 25 µg/mL; in the assay with A. flavus (value in parentheses), 129 µM.
Regarding `Cc1ccccc1C1=CCOB1O` [Compound 6v], the MIC against E. coli was > 50 µg/mL; in the assay with E. coli (value in parentheses), > 287 µM; in assay [1], > 50 µg/mL; in [1] (value in parentheses), > 287 µM; with P. chrysogenum, > 50 µg/mL; with P. chrysogenum (value in parentheses), > 287 µM. In addition, the MIC is > 50 µg/mL with C. albicans; > 287 µM in the assay with C. albicans (value in parentheses); > 50 µg/mL with S. cerevisiae; > 287 µM with S. cerevisiae (value in parentheses); > 50 µg/mL in the assay with P. aeruginosa; > 287 µM in the assay on P. aeruginosa (value in parentheses). In addition, the MIC against T. mentagrophytes was > 50 µg/mL; in the assay with T. mentagrophytes (value in parentheses), > 287 µM; with B. cereus, > 50 µg/mL; with B. cereus (value in parentheses), > 287 µM; in the assay on A. flavus it was > 50 µg/mL; in the assay with A. flavus (value in parentheses), > 287 µM.
